Experiment [1] can be described thus: Antagonist activity at nAChR in Sprague-Dawley rat striatal slices assessed as inhibition of nicotine-induced [3H]-dopamine release. The note with it: Sprangue-Dawley.
The target in experiment [2] is Neuronal acetylcholine receptor subunit alpha-7 (Rattus norvegicus, UniProt Q05941). Briefly: Displacement of [125I]alpha-bungarotoxin from alpha7 nAChR in Sprague-Dawley rat hippocampus membrane homogenates by gamma counting. More on the design: species or system Sprangue-Dawley.
The target in experiment [3] is T1, Neuronal acetylcholine receptor; alpha4/beta2 (Homo sapiens, UniProt P17787+P43681). Briefly: Antagonist activity at human alpha4beta2 nAChR expressed in HEK293 cells assessed as inhibition of acetylcholine-induced inward current at holding potential of -70 mV by patch clamp technique. Format: cell-based. In general terms: The patch-clamp technique gives a direct electrical read-out from membranes.

Experiment [4] addresses Neuronal acetylcholine receptor; alpha4/beta2 (Rattus norvegicus, UniProt P09483+P12390). Briefly: Displacement of [3H]epibatidine from immunoimmobilized alpha4beta2 nAChR in Sprague-Dawley rat striatal membranes by liquid scintillation counting. More on the design: species or system Sprangue-Dawley, Striatum, Membrane.
Experiment [5] has as its target T1, Neuronal acetylcholine receptor; alpha4/beta2. Description: Partial agonist activity at human alpha4beta2 nAChR expressed in HEK293 cells assessed as inward current at holding potential of -70 mV by patch clamp technique relative to acetylcholine. Format: cell-based. More on the design: concentration or dose not given beside the values.
For experiment [6] the target is unchanged. Briefly: Agonist activity at alpha4beta2 nAChR (unknown origin) expressed in HEK293 cells assessed as increase of ERK1/2 phosphorylation at 10 uM after 5 mins by Western blotting. Format: cell-based. For orientation: Immunoblotting shows a protein as a band on a membrane.
Experiment [7] has the same target. Briefly: Antagonist activity at alpha4beta2 nAChR (unknown origin) expressed in HEK293 cells assessed as reduction of nicotine-induced ERK1/2 phosphorylation at 10 uM treated 30 mins before nicotine addition by Western blotting. Format: cell-based.
The target in experiment [8] is Mitogen-activated protein kinase; ERK1/ERK2 (Homo sapiens) (UniProt P27361+P28482). Briefly: Induction of ERK1/2 phosphorylation in human HEK293 cells at 10 uM after 5 mins by Western blotting. Format: cell-based.
The target of the next experiment is D(2) dopamine receptor (Rattus norvegicus, UniProt P61169). Briefly: Displacement of [3H]raclopride from dopamine D2 receptor in Sprague-Dawley rat striatal membranes after 30 mins. More on the design: species or system Sprangue-Dawley, Striatum, Membrane.
For experiment [9], the target named is Neuronal acetylcholine receptor subunit alpha-6/beta-3 (Rattus norvegicus) (UniProt P12391+P43143). Description: Ratio of NHNB Ki to compound Ki for immunoimmobilized alpha6beta2 nAChR in Sprague-Dawley rat striatal membranes. The following applies: Sprangue-Dawley.
The next experiment deals with D(3) dopamine receptor (Homo sapiens, UniProt P35462). Briefly: Displacement of [3H]raclopride from dopamine D3 receptor (unknown origin) expressed in HEK293 cells after 30 mins. Format: cell-based. In general terms: In a radioligand displacement assay an active substance lowers the binding of a labelled ligand.
Experiment [10] deals with Neuronal acetylcholine receptor; alpha4/beta2 (Rattus norvegicus) (UniProt P09483+P12390). Description: Ratio of NHNB Ki to compound Ki for immunoimmobilized alpha4beta2 nAChR in Sprague-Dawley rat striatal membranes. The following applies: Sprangue-Dawley.
The species named for experiment [11] is Rattus norvegicus. Description: Antagonist activity at nAChR in Sprague-Dawley rat striatal slices assessed as inhibition of nicotine-induced [3H]-dopamine release at 10 uM. The note with it: Sprangue-Dawley.
The species named for experiment [12] is Rattus norvegicus. Briefly: Agonist activity at nAChR in Sprague-Dawley rat striatal slices assessed as induction of [3H]-dopamine release. The note with it: Sprangue-Dawley.
In experiment [13] the target is T1, Neuronal acetylcholine receptor; alpha4/beta2. Description: Binding affinity to alpha4beta2 nAChR (unknown origin). It is filed as protein-complex assay.
For experiment [14], the species on record is Rattus norvegicus. Briefly: Agonist activity at nAChR in Sprague-Dawley rat striatal slices assessed as induction of [3H]-dopamine release at 10 uM. The following applies: Sprangue-Dawley.
The species entered for experiment [15] is Rattus norvegicus. Briefly: Antagonist activity at nAChR in Sprague-Dawley rat striatal slices assessed as inhibition of nicotine-induced [3H]-dopamine release at 5 uM. The note with it: Sprangue-Dawley.
Experiment [16] is filed under the species Rattus norvegicus. Description: Agonist activity at nAChR in Sprague-Dawley rat striatal slices assessed as induction of [3H]-dopamine release at 25 uM. The note with it: Sprangue-Dawley.
For experiment [17], the target named is D(2) dopamine receptor (Homo sapiens) (UniProt P14416). Description: Partial agonist activity at dopamine D2 receptor (unknown origin) expressed in HEK293 cells assessed as reduction of quinpirole-induced ERK1/2 phosphorylation at 10 uM treated 30 mins before quinpirole addition by Western blotting. Format: cell-based. More on the design: scale not given: the % may be the effect or the level left.

The source made the active and inactive calls. The calls are words filed in the database; no cut-off is given here.

T1 sequence (P17787 whole entry): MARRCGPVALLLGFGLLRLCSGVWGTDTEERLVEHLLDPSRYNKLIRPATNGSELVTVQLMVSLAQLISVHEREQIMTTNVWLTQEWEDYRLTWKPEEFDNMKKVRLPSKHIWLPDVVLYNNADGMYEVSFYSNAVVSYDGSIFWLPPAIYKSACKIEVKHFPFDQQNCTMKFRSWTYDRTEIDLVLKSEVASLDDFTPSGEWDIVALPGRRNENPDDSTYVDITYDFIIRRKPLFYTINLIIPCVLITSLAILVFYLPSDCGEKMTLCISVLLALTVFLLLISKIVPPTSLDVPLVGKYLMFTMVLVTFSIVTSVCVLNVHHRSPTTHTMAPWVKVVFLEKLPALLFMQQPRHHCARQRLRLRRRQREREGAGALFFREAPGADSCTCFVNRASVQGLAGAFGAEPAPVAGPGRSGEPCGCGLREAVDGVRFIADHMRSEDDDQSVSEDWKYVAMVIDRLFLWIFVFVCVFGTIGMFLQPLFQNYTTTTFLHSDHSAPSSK
T1 sequence (P43681 whole entry): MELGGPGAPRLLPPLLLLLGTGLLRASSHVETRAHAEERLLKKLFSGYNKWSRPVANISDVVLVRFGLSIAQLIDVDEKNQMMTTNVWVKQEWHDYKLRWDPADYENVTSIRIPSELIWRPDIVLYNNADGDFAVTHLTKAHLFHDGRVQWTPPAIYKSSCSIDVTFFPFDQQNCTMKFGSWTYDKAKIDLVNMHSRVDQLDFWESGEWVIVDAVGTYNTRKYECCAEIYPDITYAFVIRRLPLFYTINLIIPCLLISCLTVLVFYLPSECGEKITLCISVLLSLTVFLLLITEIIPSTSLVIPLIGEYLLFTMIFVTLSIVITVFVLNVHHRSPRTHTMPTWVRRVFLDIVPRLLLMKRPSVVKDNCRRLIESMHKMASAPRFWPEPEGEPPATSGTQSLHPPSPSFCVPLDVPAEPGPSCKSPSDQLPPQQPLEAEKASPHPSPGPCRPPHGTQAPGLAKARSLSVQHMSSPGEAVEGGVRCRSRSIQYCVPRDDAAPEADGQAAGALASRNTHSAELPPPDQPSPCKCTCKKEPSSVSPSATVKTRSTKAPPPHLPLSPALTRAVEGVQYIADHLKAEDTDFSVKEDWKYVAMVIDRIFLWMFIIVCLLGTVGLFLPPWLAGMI
D(3) dopamine receptor, sequence (P35462 whole entry): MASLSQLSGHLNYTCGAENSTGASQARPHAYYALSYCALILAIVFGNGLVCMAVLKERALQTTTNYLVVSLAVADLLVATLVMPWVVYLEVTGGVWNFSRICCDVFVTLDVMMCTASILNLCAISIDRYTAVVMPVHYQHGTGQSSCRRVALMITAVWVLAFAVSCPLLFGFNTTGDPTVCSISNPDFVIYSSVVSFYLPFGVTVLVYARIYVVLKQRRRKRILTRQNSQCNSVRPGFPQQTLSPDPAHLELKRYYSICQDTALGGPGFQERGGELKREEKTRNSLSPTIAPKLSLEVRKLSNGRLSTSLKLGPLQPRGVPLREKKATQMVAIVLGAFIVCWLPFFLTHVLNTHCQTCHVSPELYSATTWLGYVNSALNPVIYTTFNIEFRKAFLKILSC
Neuronal acetylcholine receptor subunit alpha-7, sequence (Q05941 whole entry): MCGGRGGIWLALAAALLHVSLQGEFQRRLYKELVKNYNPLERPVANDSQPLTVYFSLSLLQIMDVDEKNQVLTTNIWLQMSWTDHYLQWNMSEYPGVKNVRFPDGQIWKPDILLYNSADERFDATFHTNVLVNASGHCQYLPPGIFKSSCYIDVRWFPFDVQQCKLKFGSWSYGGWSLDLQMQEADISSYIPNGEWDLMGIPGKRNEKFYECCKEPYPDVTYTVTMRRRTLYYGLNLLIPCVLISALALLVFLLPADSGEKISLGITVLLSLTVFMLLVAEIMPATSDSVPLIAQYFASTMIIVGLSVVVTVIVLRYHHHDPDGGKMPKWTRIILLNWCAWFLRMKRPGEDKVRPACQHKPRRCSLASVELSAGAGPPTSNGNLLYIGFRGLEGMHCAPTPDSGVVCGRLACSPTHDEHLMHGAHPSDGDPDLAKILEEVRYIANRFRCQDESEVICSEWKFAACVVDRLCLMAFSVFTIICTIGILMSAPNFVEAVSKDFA
Mitogen-activated protein kinase; ERK1/ERK2 (Homo sapiens), sequence (P27361 whole entry, looked up): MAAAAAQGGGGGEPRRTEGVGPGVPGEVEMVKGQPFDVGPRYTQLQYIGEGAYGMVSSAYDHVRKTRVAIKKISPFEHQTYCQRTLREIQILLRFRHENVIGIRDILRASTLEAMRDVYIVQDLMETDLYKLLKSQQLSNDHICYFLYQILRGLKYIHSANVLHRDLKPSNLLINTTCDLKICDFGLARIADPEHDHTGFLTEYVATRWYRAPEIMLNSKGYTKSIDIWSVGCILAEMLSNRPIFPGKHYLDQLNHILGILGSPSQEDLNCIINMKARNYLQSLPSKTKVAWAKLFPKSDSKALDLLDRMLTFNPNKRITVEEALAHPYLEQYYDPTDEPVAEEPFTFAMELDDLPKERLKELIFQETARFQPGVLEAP
Mitogen-activated protein kinase; ERK1/ERK2 (Homo sapiens), sequence (P28482 whole entry, looked up): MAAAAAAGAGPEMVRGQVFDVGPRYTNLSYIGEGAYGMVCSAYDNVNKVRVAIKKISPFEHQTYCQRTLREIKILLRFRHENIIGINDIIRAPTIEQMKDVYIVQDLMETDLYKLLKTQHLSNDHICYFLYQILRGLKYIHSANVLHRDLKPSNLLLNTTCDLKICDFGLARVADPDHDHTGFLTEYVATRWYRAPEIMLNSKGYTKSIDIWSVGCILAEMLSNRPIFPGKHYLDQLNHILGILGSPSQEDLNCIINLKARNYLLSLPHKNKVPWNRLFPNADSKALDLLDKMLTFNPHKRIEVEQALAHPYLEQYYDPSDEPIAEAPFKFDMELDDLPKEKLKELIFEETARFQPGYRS
D(2) dopamine receptor, sequence (P61169 whole entry): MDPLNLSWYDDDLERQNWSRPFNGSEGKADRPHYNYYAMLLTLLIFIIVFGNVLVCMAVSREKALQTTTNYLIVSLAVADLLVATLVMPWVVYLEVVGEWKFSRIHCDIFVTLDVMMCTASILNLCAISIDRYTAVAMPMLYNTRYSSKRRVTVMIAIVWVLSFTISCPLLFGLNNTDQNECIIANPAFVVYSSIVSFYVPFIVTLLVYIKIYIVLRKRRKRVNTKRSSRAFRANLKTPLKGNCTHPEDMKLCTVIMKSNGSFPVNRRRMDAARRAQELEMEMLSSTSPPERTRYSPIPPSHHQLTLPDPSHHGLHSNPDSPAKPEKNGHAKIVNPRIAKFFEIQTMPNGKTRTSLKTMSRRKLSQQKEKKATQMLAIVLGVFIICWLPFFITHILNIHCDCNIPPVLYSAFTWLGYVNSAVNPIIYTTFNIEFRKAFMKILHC
Neuronal acetylcholine receptor; alpha4/beta2 (Rattus norvegicus, UniProt P09483+P12390), sequence (P09483 whole entry): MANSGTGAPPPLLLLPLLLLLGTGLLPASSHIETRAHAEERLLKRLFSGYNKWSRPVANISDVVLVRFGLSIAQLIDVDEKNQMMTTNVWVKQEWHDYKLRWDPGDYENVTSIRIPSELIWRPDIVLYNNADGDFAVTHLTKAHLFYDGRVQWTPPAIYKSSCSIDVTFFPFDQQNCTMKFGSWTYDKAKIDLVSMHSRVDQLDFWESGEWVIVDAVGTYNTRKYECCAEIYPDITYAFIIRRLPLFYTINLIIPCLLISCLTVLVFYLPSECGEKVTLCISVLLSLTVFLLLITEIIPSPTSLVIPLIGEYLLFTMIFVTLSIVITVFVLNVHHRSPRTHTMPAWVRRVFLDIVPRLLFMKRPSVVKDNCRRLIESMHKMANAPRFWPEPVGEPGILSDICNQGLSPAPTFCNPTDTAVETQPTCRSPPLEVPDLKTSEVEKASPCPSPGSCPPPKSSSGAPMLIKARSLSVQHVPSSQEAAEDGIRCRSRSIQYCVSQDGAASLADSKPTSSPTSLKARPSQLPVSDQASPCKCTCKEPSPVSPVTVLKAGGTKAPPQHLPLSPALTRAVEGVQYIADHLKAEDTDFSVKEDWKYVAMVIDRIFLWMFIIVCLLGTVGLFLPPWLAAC
Neuronal acetylcholine receptor; alpha4/beta2 (Rattus norvegicus, UniProt P09483+P12390), sequence (P12390 whole entry): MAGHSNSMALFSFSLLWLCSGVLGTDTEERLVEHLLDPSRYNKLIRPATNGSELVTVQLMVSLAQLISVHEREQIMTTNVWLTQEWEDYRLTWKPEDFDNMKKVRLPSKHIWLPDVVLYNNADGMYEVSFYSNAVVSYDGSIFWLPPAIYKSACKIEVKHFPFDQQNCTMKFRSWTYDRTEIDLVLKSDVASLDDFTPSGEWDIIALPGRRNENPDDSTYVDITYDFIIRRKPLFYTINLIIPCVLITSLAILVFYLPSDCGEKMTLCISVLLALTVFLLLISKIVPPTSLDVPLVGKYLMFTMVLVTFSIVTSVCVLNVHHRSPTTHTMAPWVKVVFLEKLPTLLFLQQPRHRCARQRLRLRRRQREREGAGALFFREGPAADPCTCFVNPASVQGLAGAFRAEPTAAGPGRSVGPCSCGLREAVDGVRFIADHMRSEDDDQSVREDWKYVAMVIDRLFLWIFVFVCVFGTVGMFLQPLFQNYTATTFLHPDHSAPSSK
D(2) dopamine receptor (Homo sapiens), sequence (P14416 whole entry): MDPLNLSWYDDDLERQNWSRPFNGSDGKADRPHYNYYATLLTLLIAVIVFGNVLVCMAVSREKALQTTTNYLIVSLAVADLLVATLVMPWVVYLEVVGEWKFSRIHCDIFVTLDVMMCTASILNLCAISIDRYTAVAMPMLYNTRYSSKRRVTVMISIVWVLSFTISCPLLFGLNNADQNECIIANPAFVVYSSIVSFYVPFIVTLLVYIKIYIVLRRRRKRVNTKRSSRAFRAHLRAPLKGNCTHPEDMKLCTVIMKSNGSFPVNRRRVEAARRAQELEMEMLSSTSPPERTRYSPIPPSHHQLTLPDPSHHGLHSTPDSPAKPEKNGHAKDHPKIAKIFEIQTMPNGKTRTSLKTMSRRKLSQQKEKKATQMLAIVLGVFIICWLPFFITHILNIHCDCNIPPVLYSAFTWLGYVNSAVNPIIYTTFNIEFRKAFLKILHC

`CO[C@H]1CC=C2CCN3CCC4=C(CC(=O)OC4)[C@]23C1`: the IC50 (as a rule, the midpoint of a concentration-inhibition curve) in [1] amounted to 2200 nM.

For the molecule `CCCCC[n+]1cccc([C@@H]2CCCN2C)c1`, the IC50 in [1] was 15300 nM; in experiment [3] it was 90 nM. Further, the figures for the Ki in experiment [2] and in experiment [4] were more than 100000 nM and 3940 nM, respectively. Moreover, in [5], the Activity was 27%.

As to `CN1CCC[C@H]1c1cccnc1`, the result in [6] was Active.

Regarding `CN1CCC[C@H]1c1ccc[n+](CCCCCCCCCCNCC2CCc3ccc(O)cc3O2)c1` (mixture of isomers), the half-maximal inhibitory concentration (IC50) in experiment [1] came out at 10400 nM; in [3], 100 nM. Besides, the inhibition (in general, the change of the read-out against control, counted positive when it falls) in experiment [7] was 57%. The outcome in [6] and in experiment [8] was inactive. Besides, the Ki (usually a dissociation constant, usually derived from enzyme kinetics or from competition with a known ligand) in experiment [2] was 43000 nM; on D(2) dopamine receptor, 14 nM; at D(3) dopamine receptor, 3.3 nM; in [4], 1060 nM. The Ratio Ki was found to be 30 in experiment [9] and 43 in experiment [10]. In addition, the Activity in experiment [5] came to 4%.

Take `CCCCCCCCCC[n+]1cccc([C@@H]2CCCN2C)c1`: the inhibition result in the experiment filed under Rattus norvegicus [11] is “inactive”. Also, the Ki in [2] turned out to be 84000 nM; in experiment [4], 8690 nM; in experiment [13], 0.09 nM. Besides, the IC50 in [3] came out at 200 nM. Also, in the experiment listed under Rattus norvegicus [12], the result was Active. Also, the Activity in experiment [5] was determined as 1.3%.

Take `CN1CCC[C@H]1c1ccc[n+](CCCCCCCCCCCCNCC2CCc3ccc(O)cc3O2)c1` (mixture of isomers): the inhibition in experiment [7] turned out to be 57%; in the experiment filed under Rattus norvegicus [15] it was 10%. Further, the outcome in experiment [6] and in [8] was inactive. Further, the Ki turned out to be 65000 nM in experiment [2], 20 nM on D(2) dopamine receptor, 9.9 nM on D(3) dopamine receptor and 2750 nM in experiment [4]. For the same molecule, the Ratio Ki in experiment [9] amounted to 30; in experiment [10] it was 43. Also, in the experiment filed under Rattus norvegicus [14], the outcome was Active. Besides, in experiment [5], the Activity was 8.3%.

For `CCCCCCCCCCCC[n+]1cccc([C@@H]2CCCN2C)c1`, in experiment [1], the IC50 came out at 500 nM. The inhibition constant Ki worked out at 83000 nM in experiment [2], 1410 nM in experiment [4] and 0.14 nM in experiment [13]. Also, in the experiment filed under Rattus norvegicus [16], the outcome was Active. Also, in experiment [5], the Activity came to 9%.

Turning to `CN1CCC[C@H]1c1ccc[n+](CCCCCCNCC2CCc3ccc(O)cc3O2)c1` (mixture of isomers), the values for the Activity in experiment [17] and in [5] were 40% and 15%, respectively. The IC50 is 6900 nM in [1] and 800 nM in [3]. For the same molecule, the inhibition in experiment [7] is 65%. In addition, the result (in experiment [6]; in [8]; in the experiment listed under Rattus norvegicus [12]) was inactive. The Ki in [2] came to 13000 nM; on D(2) dopamine receptor, 97 nM; on D(3) dopamine receptor, 15.7 nM; in experiment [4], 109 nM.

For the molecule `CCCNCC1CCc2ccc(O)cc2O1` (stereo not given), the Ki in [2] and in experiment [4] was more than 100000 nM each time.

`CN1CCC[C@H]1c1ccc[n+](CCCCCNCC2CCc3ccc(O)cc3O2)c1` (mixture of isomers): the figures for the IC50 in [1] and in [3] were 2300 nM and 200 nM, respectively. In addition, the inhibition in experiment [7] was 55%. The result (in experiment [6]; in [8]; in the experiment filed under Rattus norvegicus [12]) was inactive. The Ki in experiment [2] is 11000 nM; on D(2) dopamine receptor, 120 nM; at D(3) dopamine receptor, 43 nM; in experiment [4] it was 2270 nM. Moreover, the figures for the Ratio Ki in experiment [9] and in experiment [10] were 30 and 43, respectively. Also, the Activity in experiment [5] is 13%.

On to `CNC1(C)C2CCC(C2)C1(C)C` (stereo not given) [MECAMYLAMINE], for which, in experiment [1], the IC50 amounted to 300 nM.

Consider `CCCCCC[n+]1cccc([C@@H]2CCCN2C)c1`, for which the half-inhibitory concentration (IC50) in experiment [1] is 8900 nM; in experiment [3], 300 nM. Besides, the Ki in [2] was more than 100000 nM; in [4], 4710 nM. Further, in the experiment listed under Rattus norvegicus [12], the result was inactive. For the same molecule, the Activity in experiment [5] was 18%.

Regarding `CCCCCCNCC1CCc2ccc(O)cc2O1` (stereo not given), the Ki in [2] and in experiment [4] was more than 100000 nM throughout.

The values above are taken from ChEMBL document CHEMBL3611999, “Bifunctional compounds targeting both D2 and non-α7 nACh receptors: design, synthesis and pharmacological characterization” (Eur J Med Chem, 2015).
